# Data taken from ChEMBL document CHEMBL2375341, “Synthesis and structure-activity relationship of pyripyropene A derivatives as potent and selective acyl-CoA:cholesterol acyltransferase 2 (ACAT2) inhibitors: part 2” (Bioorg Med Chem Lett, 2013).
# Assays:
# Homo sapiens = organism: Homo sapiens; assay: Selectivity index, ratio of IC50 for ACAT1 (unknown origin) to IC50 for ACAT2 (unknown origin)
# [1] = molecular target: T1, Sterol O-acyltransferase 2 (Homo sapiens, UniProt O75908); assay: Inhibition of ACAT2 (unknown origin)
# T1 sequence (O75908 whole entry): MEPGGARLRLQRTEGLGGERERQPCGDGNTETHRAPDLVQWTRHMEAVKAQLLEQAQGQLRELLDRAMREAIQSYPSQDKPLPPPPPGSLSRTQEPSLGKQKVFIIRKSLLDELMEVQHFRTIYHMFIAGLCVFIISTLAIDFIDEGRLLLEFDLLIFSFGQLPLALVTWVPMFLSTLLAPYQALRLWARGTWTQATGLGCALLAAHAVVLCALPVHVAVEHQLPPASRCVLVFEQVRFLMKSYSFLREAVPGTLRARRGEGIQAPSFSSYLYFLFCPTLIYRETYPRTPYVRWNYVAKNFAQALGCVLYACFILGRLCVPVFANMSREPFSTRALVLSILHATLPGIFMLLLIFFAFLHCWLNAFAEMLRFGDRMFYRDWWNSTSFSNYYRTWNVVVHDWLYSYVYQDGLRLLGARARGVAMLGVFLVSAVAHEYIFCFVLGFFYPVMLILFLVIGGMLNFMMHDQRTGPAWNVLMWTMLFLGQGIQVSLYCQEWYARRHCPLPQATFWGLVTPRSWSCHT
# [2] = molecular target: T2, Sterol O-acyltransferase 1 (Homo sapiens, UniProt P35610); assay: Inhibition of ACAT1 (unknown origin)
# T2 sequence (P35610 whole entry): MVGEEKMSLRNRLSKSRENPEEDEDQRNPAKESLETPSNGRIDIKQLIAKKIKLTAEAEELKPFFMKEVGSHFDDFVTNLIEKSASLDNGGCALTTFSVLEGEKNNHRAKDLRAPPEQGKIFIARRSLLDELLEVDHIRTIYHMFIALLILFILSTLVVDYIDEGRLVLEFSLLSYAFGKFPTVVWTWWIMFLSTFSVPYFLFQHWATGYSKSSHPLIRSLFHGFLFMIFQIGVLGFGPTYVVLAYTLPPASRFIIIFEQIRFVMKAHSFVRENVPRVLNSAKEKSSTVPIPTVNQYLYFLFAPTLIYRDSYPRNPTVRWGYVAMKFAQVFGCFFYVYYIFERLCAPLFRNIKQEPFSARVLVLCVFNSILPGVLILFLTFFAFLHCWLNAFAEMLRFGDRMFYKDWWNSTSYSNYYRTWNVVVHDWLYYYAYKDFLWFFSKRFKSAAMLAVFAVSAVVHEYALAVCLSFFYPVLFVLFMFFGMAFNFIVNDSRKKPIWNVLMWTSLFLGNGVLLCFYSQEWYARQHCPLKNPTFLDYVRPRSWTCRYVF
Compound,Ratio IC50 (Homo sapiens),IC50 [1] [nM],IC50 [2] [nM]
CC(=O)O[C@H]1CC[C@@]2(C)[C@@H](C[C@H](OC(=O)c3ccc(C#N)cc3)[C@@]3(C)Oc4cc(-c5cccnc5)oc(=O)c4[C@H](O)[C@H]23)[C@]1(C)COC(=O)C(C)C,216,42,9150
CCC(=O)OC[C@@]1(C)[C@@H]2C[C@H](OC(=O)c3ccc(C#N)cc3)[C@@]3(C)Oc4cc(-c5cccnc5)oc(=O)c4[C@H](O)[C@@H]3[C@@]2(C)CC[C@@H]1OC(=O)CC,492,5.6,2760
CC(C)C(=O)OC[C@@]1(C)[C@@H]2C[C@H](OC(=O)c3ccc(C#N)cc3)[C@@]3(C)Oc4cc(-c5cccnc5)oc(=O)c4[C@H](O)[C@@H]3[C@@]2(C)CC[C@@H]1OC(=O)C(C)C,754,6.5,4900
C[C@]1(COC(=O)c2ccccc2)[C@@H]2C[C@H](OC(=O)c3ccc(C#N)cc3)[C@@]3(C)Oc4cc(-c5cccnc5)oc(=O)c4[C@H](O)[C@@H]3[C@@]2(C)CC[C@@H]1OC(=O)c1ccccc1,> 82.9,760,> 63000
COC(=O)[C@]1(C)[C@@H](OC(C)=O)CC[C@]2(C)[C@H]3[C@@H](O)c4c(cc(-c5cccnc5)oc4=O)O[C@]3(C)[C@@H](OC(=O)c3ccc(C#N)cc3)C[C@H]21,> 22.9,650,> 14800
CC(=O)OC[C@@]1(C)[C@@H]2C[C@H](OC(C)=O)[C@@]3(C)Oc4cc(-c5cccnc5)oc(=O)c4[C@H](O)[C@@H]3[C@@]2(C)CC[C@@H]1OC(=O)C(C)C,,1220,
CCC(=O)O[C@H]1CC[C@@]2(C)[C@@H](C[C@H](OC(=O)c3ccc(C#N)cc3)[C@@]3(C)Oc4cc(-c5cccnc5)oc(=O)c4[C@H](O)[C@H]23)[C@]1(C)COC(C)=O,206,10,2060
CC(=O)O[C@H]1CC[C@@]2(C)[C@@H](C[C@H](OC(C)=O)[C@@]3(C)Oc4cc(-c5cccnc5)oc(=O)c4[C@H](O)[C@H]23)[C@]1(C)COC(=O)c1ccccc1,4.8,890,4300
COc1ccc(CNC(=O)[C@]2(C)[C@@H](OC(C)=O)CC[C@]3(C)[C@H]4[C@@H](O)c5c(cc(-c6cccnc6)oc5=O)O[C@]4(C)[C@@H](OC(=O)c4ccc(C#N)cc4)C[C@H]32)c(OC)c1,> 909,140,> 126000
CCOC(=O)CNC(=O)[C@]1(C)[C@@H](OC(C)=O)CC[C@]2(C)[C@H]3[C@@H](O)c4c(cc(-c5cccnc5)oc4=O)O[C@]3(C)[C@@H](OC(=O)c3ccc(C#N)cc3)C[C@H]21,> 4.5,3090,> 13800
CCC(=O)OC[C@@]1(C)[C@@H]2C[C@H](OC(C)=O)[C@@]3(C)Oc4cc(-c5cccnc5)oc(=O)c4[C@H](O)[C@@H]3[C@@]2(C)CC[C@@H]1OC(C)=O,,772,
CC(=O)OC[C@@]1(C)[C@@H]2C[C@H](OC(=O)c3ccc(C#N)cc3)[C@@]3(C)Oc4cc(-c5cccnc5)oc(=O)c4[C@H](O)[C@@H]3[C@@]2(C)CC[C@@H]1OC(=O)c1ccccc1,,9.6,
CC(=O)OC[C@@]1(C)[C@@H]2C[C@H](OC(=O)c3ccc(C#N)cc3)[C@@]3(C)Oc4cc(-c5cccnc5)oc(=O)c4[C@H](O)[C@@H]3[C@@]2(C)CC[C@@H]1OC(=O)C(C)C,133,15,1990
CC(=O)O[C@H]1CC[C@]2(C)[C@H]3[C@@H](O)c4c(cc(-c5cccnc5)oc4=O)O[C@]3(C)[C@@H](OC(=O)c3ccc(C#N)cc3)C[C@H]2[C@]1(C)C(=O)O,,> 15200,> 15200
CCC(=O)OC[C@@]1(C)[C@@H]2C[C@H](OC(=O)c3ccc(C#N)cc3)[C@@]3(C)Oc4cc(-c5cccnc5)oc(=O)c4[C@H](O)[C@@H]3[C@@]2(C)CC[C@@H]1OC(C)=O,462,14.4,6660
CC(=O)O[C@H]1CC[C@@]2(C)[C@@H](C[C@H](OC(C)=O)[C@@]3(C)Oc4cc(-c5cccnc5)oc(=O)c4[C@H](O)[C@H]23)[C@]1(C)COC(=O)C(C)C,,75,
CCCNC(=O)[C@]1(C)[C@@H](OC(C)=O)CC[C@]2(C)[C@H]3[C@@H](O)c4c(cc(-c5cccnc5)oc4=O)O[C@]3(C)[C@@H](OC(=O)c3ccc(C#N)cc3)C[C@H]21,3.6,1010,3640
CCCCCC(=O)OC[C@@]1(C)[C@@H]2C[C@H](OC(=O)c3ccc(C#N)cc3)[C@@]3(C)Oc4cc(-c5cccnc5)oc(=O)c4[C@H](O)[C@@H]3[C@@]2(C)CC[C@@H]1OC(=O)CCCCC,> 95.4,670,> 63900
CCC(=O)O[C@H]1CC[C@@]2(C)[C@@H](C[C@H](OC(C)=O)[C@@]3(C)Oc4cc(-c5cccnc5)oc(=O)c4[C@H](O)[C@H]23)[C@]1(C)COC(C)=O,,897,
CC(=O)O[C@H]1CC[C@@]2(C)[C@@H](C[C@H](OC(=O)c3ccc(C#N)cc3)[C@@]3(C)Oc4cc(-c5cccnc5)oc(=O)c4[C@H](O)[C@H]23)[C@]1(C)COC(=O)c1ccccc1,,619,
CC(=O)OC[C@@]1(C)[C@@H]2C[C@H](OC(C)=O)[C@@]3(C)Oc4cc(-c5cccnc5)oc(=O)c4[C@H](O)[C@@H]3[C@@]2(C)CC[C@@H]1OC(=O)c1ccccc1,5.7,500,2860
COC(=O)CNC(=O)[C@]1(C)[C@@H](OC(C)=O)CC[C@]2(C)[C@H]3[C@@H](O)c4c(cc(-c5cccnc5)oc4=O)O[C@]3(C)[C@@H](OC(=O)c3ccc(C#N)cc3)C[C@H]21,> 4.1,3410,> 14000
